{
  "source": "patent US11987575B2",
  "about": "“Tricyclic compounds as BCR-ABL inhibitors” (ASCENTAGE PHARMA (SUZHOU) CO., LTD., priority 2019, dated 2024)",
  "key": {"[1]": {"biological_target": "BaF3 (T315I mutant) (Homo sapiens, UniProt P00519, T315I, cells depend on it)", "test": "WST (CCK-8) anti-proliferative assay, BaF3 T315I mutant", "conditions": "read-out: BaF3 (T315I mutant), 72 h treatment, CCK-8 readout OD 450 nm", "protocol": "(§1) The anti-proliferative effect of representative compounds of the present disclosure was determined by a water-soluble tetrazolium (WST)-based assay using Cell Counting Kit-8 (CCK-8). Cells were seeded in 96-well plates and treated with different concentrations of test articles for 72 h. Each treatment was tested in triplicate. Briefly, a series of 9 concentrations were chosen for each test article and added at 100 μl/well into a 96-well plate. Each concentration was tested in triplicate. 100 μl of diluent was added into 3-6 wells in the same plate for cell control group, and another set of 3-6 wells was used as a blank control.\n(§2) In each well, 100 μl of cell suspension (containing optimal cell numbers, which creates approximately 100% confluence of cells in control wells based on by the absorbance (OD) value) was dispensed into the same 96-well plate except for the blank well. The plate was then cultured at 37° C. in an incubator in an atmosphere with 5% CO2 for 72 h. At the end of the treatments, 20 μl/well of CCK-8 reagent was directly added to each well. The plate was then incubated at 37° C. in an incubator in an atmosphere with 5% CO2 for 2-4 hours.\n(§3) The cells viability was calculated using the mean OD value of triplicated wells following the equation below: (OD sample−OD blank)/(OD cell control−OD blank)×100 IC50 values were calculated with Graphpad Prism 6.0 software using nonlinear regression (curve fitting) type data analysis."}, "[2]": {"biological_target": "BaF3(WT) (Homo sapiens, UniProt P00519)", "test": "WST (CCK-8) anti-proliferative assay, BaF3 WT", "conditions": "read-out: BaF3(WT); BaF3 WT cells, 72 h treatment, CCK-8 readout OD 450 nm", "protocol": "as §1, §2, §3"}},
  "data": [
    {"smiles": "CC(=O)NC1CCC2c3cc(C(=O)Nc4ccc(OC(F)(F)Cl)cc4)cc(-c4cc[nH]n4)c3N(CC3(C)CC3)C12", "note": "(stereo not shown) [Compound 45]", "values": [
      {"measurement": "GI50", "setting": "[1]", "result": 0.111, "unit": "µM"},
      {"measurement": "GI50", "setting": "[2]", "result": 0.018, "unit": "µM"}
    ]},
    {"smiles": "CNS(=O)(=O)NC1CCC2c3cc(C(=O)Nc4ccc(OC(F)(F)Cl)cc4)cc(-c4ccn[nH]4)c3N(C(C)C)C12", "note": "(stereo not shown) [Compound 5]", "values": [
      {"measurement": "GI50", "setting": "[1]", "result": 0.144, "unit": "µM"},
      {"measurement": "GI50", "setting": "[2]", "result": 0.034, "unit": "µM"}
    ]},
    {"smiles": "CC(=O)N[C@@H]1CC[C@H]2c3cc(C(=O)Nc4ccc(OC(F)(F)Cl)cc4)cc(-c4cnccn4)c3N(CC(C)(C)C)[C@@H]12", "note": "[Compound 58-A]", "values": [
      {"measurement": "GI50", "setting": "[1]", "result": 0.08, "unit": "µM"},
      {"measurement": "GI50", "setting": "[2]", "result": 0.018, "unit": "µM"}
    ]},
    {"smiles": "CC(=O)N[C@@H]1CC[C@H]2c3cc(C(=O)Nc4ccc(OC(F)(F)Cl)cc4)cc(-c4cncc(Cl)c4)c3N(C(C)C)[C@@H]12", "note": "[Compound 52-A]", "values": [
      {"measurement": "GI50", "setting": "[1]", "result": 0.047, "unit": "µM"},
      {"measurement": "GI50", "setting": "[2]", "result": 0.003, "unit": "µM"}
    ]},
    {"smiles": "CC(C)N1c2c(-c3ccn[nH]3)cc(C(=O)Nc3ccc(OC(F)(F)Cl)cc3)cc2C2CCC(NS(=O)(=O)N3CCOCC3)C21", "note": "(stereo not shown) [Compound 13]", "values": [
      {"measurement": "GI50", "setting": "[1]", "result": 0.122, "unit": "µM"},
      {"measurement": "GI50", "setting": "[2]", "result": 0.012, "unit": "µM"}
    ]}
  ]
}
